“Also recorded” adds a separate entry of the source. Like-named read-outs stand apart in the source and are kept apart here. Each block holds one compound with its values, some of them ahead of it.
Tests used:
THP-1 human macrophages = experiment: Cytokine expression in THP-1 macrophages stimulated with LPS and IFNγ; assay type: cell-based; details: for attenuation (reduction) of TNF expression: 10 μM, LPS and IFNγ, FIG. 1C
Experimental: THP-1 cells were treated with 100 nM phorbol 12-myristate 13-acetate (PMA) for 72 hours in RPMI 1640X media. Cells were rested in PMA free media 24 hours prior to treatments. LPS (10 ng/mL) was used for pro-inflammatory stimulation.
THP-1 cells were treated with 10 μM of designated drug or vehicle (DMSO) and 24 hours after treatment, supernatant was added to Human Cytokine XL proteome array (R&D Systems) in accordance with manufacturer protocol. Chemiluminescence was used to visualize protein quantities.
To evaluate the anti-inflammatory effects of compounds 3, 5, and 6, THP-1 human macrophages were stimulated with LPS and IFNγ in the presence of TAK1 inhibitor (10 μM) or vehicle.

TAK1 [1] = target: T1, TAK1 (Homo sapiens (Human), UniProt O43318); experiment: TAK1 kinase inhibition IC50 (TABLE 1; FIG. 1B selectivity screening); assay type: biochemical
Target sequence in this assay (O43318 31-303): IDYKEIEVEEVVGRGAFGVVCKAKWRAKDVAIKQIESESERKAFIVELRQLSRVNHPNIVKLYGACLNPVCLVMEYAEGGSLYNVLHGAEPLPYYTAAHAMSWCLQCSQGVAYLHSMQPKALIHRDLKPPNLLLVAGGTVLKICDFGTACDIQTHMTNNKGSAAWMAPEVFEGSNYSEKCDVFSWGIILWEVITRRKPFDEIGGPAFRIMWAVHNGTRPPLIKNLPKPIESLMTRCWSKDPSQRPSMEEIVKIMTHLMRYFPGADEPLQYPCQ
Target sequence in this assay (Q15750 468-497 partner): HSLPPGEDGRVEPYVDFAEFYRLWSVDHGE

IRAK4 = IRAK4 (Homo sapiens (Human), UniProt Q9NWZ3); experiment: IRAK4 kinase inhibition IC50 (TABLE 1; FIG. 1B selectivity screening); assay type: biochemical; details: for Ratio IC50 (IRAK4)/IC50 (TAK1): selectivity for TAK1 over IRAK4
Sequence of IRAK4 (Q9NWZ3 whole entry): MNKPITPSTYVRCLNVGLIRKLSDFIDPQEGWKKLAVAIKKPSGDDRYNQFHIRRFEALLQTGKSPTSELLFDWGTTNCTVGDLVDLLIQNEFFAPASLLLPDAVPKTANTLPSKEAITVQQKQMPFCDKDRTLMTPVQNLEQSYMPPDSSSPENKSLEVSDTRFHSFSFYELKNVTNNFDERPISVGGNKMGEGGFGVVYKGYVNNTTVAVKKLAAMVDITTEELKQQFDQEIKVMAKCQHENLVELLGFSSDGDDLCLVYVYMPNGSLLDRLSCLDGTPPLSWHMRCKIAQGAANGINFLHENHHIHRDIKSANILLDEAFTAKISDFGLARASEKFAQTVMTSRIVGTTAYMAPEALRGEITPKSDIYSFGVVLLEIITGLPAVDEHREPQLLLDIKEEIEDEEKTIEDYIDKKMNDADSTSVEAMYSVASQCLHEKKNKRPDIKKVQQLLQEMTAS

[2] = Pharmacokinetics after oral gavage in rats (plasma and urine, LC-MS); assay type: in vivo, Sprague Dawley rats
Experimental: All serum/drug samples were frozen and stored at −80° C., unless otherwise specified. […] This internal standard solution was used for tissue homogenization. LC-MS analysis was performed at the Duke Proteomics and Metabolomics Core Facility.

[3] = test system: Collagen Type II Induced Arthritis (CIA); experiment: CIA mouse model of inflammatory arthritis; assay type: in vivo, DBA/1 mice; details: for reduction of clinical arthritis score: QD, FIG. 5A; for reduction in disease clinical score (AUC): FIG. 5B
MAP4K5 [4] = target: T2, MAP4K5 (Homo sapiens (Human), UniProt Q9Y4K4); experiment: Dose-response of top 10 kinases (FIG. 1A); assay type: biochemical; details: read-out: half maximal inhibitory concentration (IC50) MAP4K5
T2 sequence (Q9Y4K4 whole entry): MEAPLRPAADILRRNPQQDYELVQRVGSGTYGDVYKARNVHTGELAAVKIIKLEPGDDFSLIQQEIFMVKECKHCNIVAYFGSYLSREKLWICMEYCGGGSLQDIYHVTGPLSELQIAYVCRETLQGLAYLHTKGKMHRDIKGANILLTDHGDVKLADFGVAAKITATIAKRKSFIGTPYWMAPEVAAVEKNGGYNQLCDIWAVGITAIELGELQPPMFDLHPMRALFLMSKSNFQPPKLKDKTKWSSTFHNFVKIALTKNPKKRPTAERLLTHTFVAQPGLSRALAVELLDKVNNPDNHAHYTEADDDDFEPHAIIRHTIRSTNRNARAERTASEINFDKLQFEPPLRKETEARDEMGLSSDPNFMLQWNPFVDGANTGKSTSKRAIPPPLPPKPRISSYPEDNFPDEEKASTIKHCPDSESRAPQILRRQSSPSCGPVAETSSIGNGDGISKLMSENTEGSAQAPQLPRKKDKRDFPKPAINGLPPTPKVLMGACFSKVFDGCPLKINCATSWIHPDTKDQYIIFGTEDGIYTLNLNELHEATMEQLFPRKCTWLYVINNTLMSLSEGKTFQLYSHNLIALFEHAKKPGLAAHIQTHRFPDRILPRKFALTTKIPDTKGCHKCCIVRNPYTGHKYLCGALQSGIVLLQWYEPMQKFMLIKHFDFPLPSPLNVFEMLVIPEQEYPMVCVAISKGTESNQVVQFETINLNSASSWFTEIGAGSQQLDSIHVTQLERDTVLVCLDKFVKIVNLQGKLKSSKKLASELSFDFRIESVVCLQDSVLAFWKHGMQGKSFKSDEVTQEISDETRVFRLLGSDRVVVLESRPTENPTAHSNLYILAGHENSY
Experimental: (§1) Next, dose-response experiments of the top 10 kinases inhibited by compound 5 in the initial kinome screen were conducted as described in EXAMPLE 5. […] The top 10 kinases were selected in an initial kinome screen.

CSNK1G2 = CSNK1G2 (Homo sapiens (Human), UniProt P78368); experiment: Dose-response of top 10 kinases (FIG. 1A); assay type: biochemical; details: read-out: half maximal inhibitory concentration (IC50) CSNK1G2
Sequence of CSNK1G2 (P78368 whole entry): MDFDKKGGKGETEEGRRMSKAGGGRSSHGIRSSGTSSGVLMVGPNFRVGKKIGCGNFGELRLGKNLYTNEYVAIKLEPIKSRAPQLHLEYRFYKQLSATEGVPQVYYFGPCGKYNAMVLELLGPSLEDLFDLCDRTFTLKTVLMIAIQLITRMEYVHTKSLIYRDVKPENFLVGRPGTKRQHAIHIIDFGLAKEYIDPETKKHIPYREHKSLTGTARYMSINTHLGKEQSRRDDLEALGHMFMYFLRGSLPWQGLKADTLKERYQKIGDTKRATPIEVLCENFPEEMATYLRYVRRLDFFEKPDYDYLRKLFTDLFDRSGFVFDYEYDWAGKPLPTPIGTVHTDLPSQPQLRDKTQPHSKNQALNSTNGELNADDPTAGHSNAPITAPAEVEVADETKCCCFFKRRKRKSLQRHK
Experimental: as §1

IRAK1 [5] = target: T3, IRAK1 (Homo sapiens (Human), UniProt P51617); experiment: Dose-response of top 10 kinases (FIG. 1A); assay type: biochemical; details: read-out: half maximal inhibitory concentration (IC50) IRAK1
T3 sequence (P51617 whole entry): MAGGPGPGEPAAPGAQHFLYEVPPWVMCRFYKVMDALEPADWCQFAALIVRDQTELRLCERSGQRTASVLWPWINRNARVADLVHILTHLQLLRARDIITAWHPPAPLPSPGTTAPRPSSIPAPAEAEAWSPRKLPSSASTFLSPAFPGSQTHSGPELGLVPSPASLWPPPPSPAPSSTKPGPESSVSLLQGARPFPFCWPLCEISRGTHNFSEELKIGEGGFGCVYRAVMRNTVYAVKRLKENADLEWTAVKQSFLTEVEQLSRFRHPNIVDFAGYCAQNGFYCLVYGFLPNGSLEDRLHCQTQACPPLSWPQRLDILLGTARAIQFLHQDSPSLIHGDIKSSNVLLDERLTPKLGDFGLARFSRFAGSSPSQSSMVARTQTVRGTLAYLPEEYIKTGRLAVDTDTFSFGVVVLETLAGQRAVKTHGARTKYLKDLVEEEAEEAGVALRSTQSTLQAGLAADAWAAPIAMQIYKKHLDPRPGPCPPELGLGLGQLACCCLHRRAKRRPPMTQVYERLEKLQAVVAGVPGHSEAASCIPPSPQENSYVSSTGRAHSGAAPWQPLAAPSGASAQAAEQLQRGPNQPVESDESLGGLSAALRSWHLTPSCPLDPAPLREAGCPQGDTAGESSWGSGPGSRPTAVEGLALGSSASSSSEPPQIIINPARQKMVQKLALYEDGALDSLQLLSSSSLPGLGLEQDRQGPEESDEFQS
Experimental: as §1

ULK2 [6] = target: T4, ULK2 (Homo sapiens (Human), UniProt Q8IYT8); experiment: Dose-response of top 10 kinases (FIG. 1A); assay type: biochemical; details: read-out: half maximal inhibitory concentration (IC50) ULK2
T4 sequence (Q8IYT8 whole entry): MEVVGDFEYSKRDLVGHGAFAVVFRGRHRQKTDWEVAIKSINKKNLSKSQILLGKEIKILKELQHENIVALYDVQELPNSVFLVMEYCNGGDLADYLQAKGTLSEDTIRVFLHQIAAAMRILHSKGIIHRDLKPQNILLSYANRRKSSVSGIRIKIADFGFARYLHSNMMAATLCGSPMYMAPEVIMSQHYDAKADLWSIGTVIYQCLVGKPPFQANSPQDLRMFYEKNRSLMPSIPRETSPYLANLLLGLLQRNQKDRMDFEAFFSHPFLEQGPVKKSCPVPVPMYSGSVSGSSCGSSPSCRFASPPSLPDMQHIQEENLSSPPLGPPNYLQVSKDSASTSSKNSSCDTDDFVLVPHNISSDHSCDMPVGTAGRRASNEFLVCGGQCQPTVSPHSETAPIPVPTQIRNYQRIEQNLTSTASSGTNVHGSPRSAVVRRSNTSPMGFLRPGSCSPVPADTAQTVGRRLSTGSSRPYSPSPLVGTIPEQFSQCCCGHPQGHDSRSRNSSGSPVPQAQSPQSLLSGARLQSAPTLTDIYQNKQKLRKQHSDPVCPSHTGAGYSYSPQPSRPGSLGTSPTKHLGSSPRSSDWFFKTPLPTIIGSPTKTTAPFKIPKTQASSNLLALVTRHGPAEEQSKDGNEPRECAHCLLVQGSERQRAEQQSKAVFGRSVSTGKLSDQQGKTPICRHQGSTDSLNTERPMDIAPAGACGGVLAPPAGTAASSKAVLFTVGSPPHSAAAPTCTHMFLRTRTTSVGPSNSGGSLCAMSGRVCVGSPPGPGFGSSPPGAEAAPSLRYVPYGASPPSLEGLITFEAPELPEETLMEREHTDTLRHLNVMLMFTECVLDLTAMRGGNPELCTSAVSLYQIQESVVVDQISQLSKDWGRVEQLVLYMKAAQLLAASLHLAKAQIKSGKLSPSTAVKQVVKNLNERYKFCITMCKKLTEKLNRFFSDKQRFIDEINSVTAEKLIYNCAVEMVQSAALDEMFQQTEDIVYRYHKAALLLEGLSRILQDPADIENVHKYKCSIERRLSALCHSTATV
Experimental: as §1

CLK2 = CLK2 (Homo sapiens (Human), UniProt P49760); experiment: Dose-response of top 10 kinases (FIG. 1A); assay type: biochemical; details: read-out: half maximal inhibitory concentration (IC50) CLK2
Experimental: as §1

MLK1 = MLK1 (Homo sapiens (Human), UniProt P80192); experiment: Dose-response of top 10 kinases (FIG. 1A); assay type: biochemical; details: read-out: half maximal inhibitory concentration (IC50) MLK1
Experimental: as §1

GCK = GCK (Homo sapiens (Human), UniProt Q12851); experiment: Dose-response of top 10 kinases (FIG. 1A); assay type: biochemical; details: read-out: half maximal inhibitory concentration (IC50) GCK
Experimental: as §1

NUAK = NUAK (Homo sapiens (Human), UniProt O60285); experiment: Dose-response of top 10 kinases (FIG. 1A); assay type: biochemical; details: read-out: half maximal inhibitory concentration (IC50) NUAK
Sequence of NUAK (O60285 whole entry): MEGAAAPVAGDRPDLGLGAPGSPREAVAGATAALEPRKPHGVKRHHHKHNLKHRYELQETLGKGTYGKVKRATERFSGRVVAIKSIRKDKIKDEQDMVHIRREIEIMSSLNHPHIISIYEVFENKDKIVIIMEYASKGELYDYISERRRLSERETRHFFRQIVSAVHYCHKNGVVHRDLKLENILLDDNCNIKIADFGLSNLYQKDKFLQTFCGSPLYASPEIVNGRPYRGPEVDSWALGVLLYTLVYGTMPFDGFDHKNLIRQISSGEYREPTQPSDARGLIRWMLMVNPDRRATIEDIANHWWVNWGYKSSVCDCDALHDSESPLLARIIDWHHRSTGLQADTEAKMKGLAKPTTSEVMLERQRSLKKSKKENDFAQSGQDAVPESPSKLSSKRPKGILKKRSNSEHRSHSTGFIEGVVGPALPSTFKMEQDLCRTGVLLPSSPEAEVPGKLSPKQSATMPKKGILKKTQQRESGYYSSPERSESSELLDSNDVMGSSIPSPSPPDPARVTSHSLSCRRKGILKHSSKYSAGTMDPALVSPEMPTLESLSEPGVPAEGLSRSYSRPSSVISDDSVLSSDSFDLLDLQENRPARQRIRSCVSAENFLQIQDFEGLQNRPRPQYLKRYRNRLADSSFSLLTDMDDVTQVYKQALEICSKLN
Experimental: as §1

TAK1 [7] = target: T1, TAK1; experiment: Dose-response of top 10 kinases (FIG. 1A); assay type: biochemical; details: read-out: half maximal inhibitory concentration (IC50) TAK1
Experimental: as §1
Target sequence in this assay (O43318 1-303): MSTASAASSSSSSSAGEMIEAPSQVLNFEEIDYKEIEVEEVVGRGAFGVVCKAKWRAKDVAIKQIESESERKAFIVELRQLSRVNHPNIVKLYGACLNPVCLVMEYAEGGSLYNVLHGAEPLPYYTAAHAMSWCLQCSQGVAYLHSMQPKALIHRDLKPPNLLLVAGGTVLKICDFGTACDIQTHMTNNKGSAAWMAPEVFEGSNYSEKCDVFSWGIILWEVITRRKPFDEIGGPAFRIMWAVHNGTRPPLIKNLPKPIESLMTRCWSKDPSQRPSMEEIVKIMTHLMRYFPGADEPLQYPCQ
Target sequence in this assay (Q15750 437-504 partner): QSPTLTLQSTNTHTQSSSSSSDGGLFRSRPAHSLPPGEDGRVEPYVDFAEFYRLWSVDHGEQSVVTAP

CAMKKβ-1 = CAMKKβ-1 (Homo sapiens (Human), UniProt Q96RR4); experiment: Dose-response of top 10 kinases (FIG. 1A); assay type: biochemical; details: read-out: half maximal inhibitory concentration (IC50) CAMKKβ-1
Experimental: as §1

MAP4K5 [8] = target: T2, MAP4K5; experiment: Kinase panel of 146 human kinases at 10 μM; assay type: biochemical
Description: (§2) Kinome selectivity of compound 5 was further screened using a kinase panel of 146 human kinases representing all gene family members within the human kinome.

IRAK1 [9] = target: T3, IRAK1; experiment: Kinase panel of 146 human kinases at 10 μM; assay type: biochemical
Description: as §2

CK1γ2 = CK1γ2 (Homo sapiens (Human), UniProt P78368); experiment: Kinase panel of 146 human kinases at 10 μM; assay type: biochemical
Description: as §2

NUAK1 = NUAK1 (Homo sapiens (Human), UniProt O60285); experiment: Kinase panel of 146 human kinases at 10 μM; assay type: biochemical
Sequence of NUAK1 (O60285 whole entry): as the sequence (O60285 whole entry) above
Description: as §2

ULK2 [10] = target: T4, ULK2; experiment: Kinase panel of 146 human kinases at 10 μM; assay type: biochemical
Description: as §2

TAK1 [11] = target: T1, TAK1; experiment: Kinase panel of 146 human kinases at 10 μM; assay type: biochemical
Description: as §2
Target sequence in this assay (O43318 1-303): as the sequence (O43318 1-303) above
Target sequence in this assay (Q15750 437-504 partner): as the sequence (Q15750 437-504 partner) above

[12] = test system: Enbrel® refractory arthritis; experiment: Enbrel refractory CIA rheumatoid arthritis mouse model; assay type: in vivo, mice; details: twice daily PO after etanercept days 21-30; n=6; FIG. 4E
Description: To that end, a recently developed pre-clinical model of Enbrel® refractory arthritis was utilized, in which mice develop neutralizing antibodies towards Enbrel® causing disease relapse mirroring patient populations. Using this model, mice (n=6) were initially treated with Enbrel® on days 21-30 until loss of efficacy (determined by an arthritic score of 1.5) around study days 29 to 31 showing the development of neutralizing antibodies and disease progression. At this point, a first treatment group was switched to once daily vehicle (DMSO, PO) from day 30 to day 36, and a second treatment group was switched to twice daily compound 5 (PO).

[13] = Maximum tolerated dose / 14-day oral toxicology study; assay type: in vivo; details: 5, 30, 50 and 100 mg/kg PO once daily, 14 days
Experimental: Maximum tolerated dose studies and toxicology of compound 5 further established the safety and tolerance of this compound. Here, mice were treated daily with compound 5 (PO) at 5, 30, 50 and 100 mg/kg dosing for […] consecutive days. Daily body weights were taken as well as clinical observations.
Next, and as further described in EXAMPLE 9, a 14-day toxicology study of orally administered compound 5 in CD-1 mice (n=4) was conducted, using daily oral doses of 5, 30, 50 and 100 mg/kg of compound 5. In this study, the change in body weight from baseline as well as the weight of various organs were measured.

Water solubility = assay type: physicochemical
[14] = Bioavailability of compound 1 (takinib); details: in vivo
[15] = 50 mg/kg IP, all joints, FIG. 3E

Compound: NC(=O)c1cccc(C(=O)/N=c2\[nH]c3cc(CN4CCCCC4)ccc3n2C2CCC(O)CC2)c1 (stereo not shown) [Compound 3]
attenuation (reduction) of TNF expression (THP-1 human macrophages): 2.5 fold
IC50 (TAK1 [1]; read-out: IC50 (TAK1)): 2.8 nM
IC50 (IRAK4; read-out: IC50 (IRAK4)): 8.5 nM
Ratio IC50 (IRAK4)/IC50 (TAK1) (IRAK4): 3
urine levels ([2]; 50 mg/kg oral gavage): M urine levels up to 24 hours post gavage
plasma levels across all timepoints ([2]; 50 mg/kg oral gavage, 1-24 hours): low nM

Compound: CCCn1/c(=N/C(=O)c2cccc(C(N)=O)c2)[nH]c2ccc(CO)cc21 [Compound 4]
IC50 (TAK1 [1]; read-out: IC50 (TAK1)): 2.6 nM
IC50 (IRAK4; read-out: IC50 (IRAK4)): 48 nM
Ratio IC50 (IRAK4)/IC50 (TAK1) (IRAK4): 18

Compound: CCCn1/c(=N/C(=O)c2cccc(C(N)=O)c2)[nH]c2ccc(CN3CCCCC3)cc21 [Compound 5]
reduction of clinical arthritis score ([3]; 10 mg/kg, PO): 18%
reduction of clinical arthritis score ([3]; 30 mg/kg, PO): 35%
reduction of AUC of clinical arthritis scores vs disease control ([3]; 50 mg/kg IP, QD days 21-26, Q2D days 27-36, FIG. 3C): 85%
disease incidence on day 36 ([3]; 50 mg/kg IP, QD days 21-26, Q2D days 27-36, n=12): 75%
reduction of bone resorption score vs vehicle [3, 15]: 87%
reduction of cartilage damage score vs vehicle [3, 15]: 76%
reduction of inflammation score vs vehicle [3, 15]: 62%
reduction of pannus score vs vehicle [3, 15]: 86%
reduction of periosteal bone formation score vs vehicle [3, 15]: 93%
reduction in clinical arthritis scores vs vehicle ([3]; 50 mg/kg, IP, once daily, FIG. 4A): 85%
reduction in disease clinical score (AUC) ([3]; IP dosing (25 mg/kg, QD)): 36%
reduction in disease clinical score (AUC) ([3]; oral dosing (PO)): 35%
attenuation (reduction) of TNF expression (THP-1 human macrophages): 11 fold
IC50 (MAP4K5 [4]): 124 nM
IC50 (CSNK1G2): 809 nM
IC50 (IRAK1 [5]): 264 nM
IC50 (ULK2 [6]): 63 nM
IC50 (CLK2): 29 nM
IC50 (MLK1): 5590 nM
IC50 (GCK): 33 nM
IC50 (NUAK): 270 nM
IC50 (TAK1 [7]): 8 nM
IC50 (CAMKKβ-1): 1280 nM
enzymatic activity of MAP4K5 (MAP4K5 [8]): < 15 % enzymatic activity
enzymatic activity of IRAK1 (IRAK1 [9]): < 15 % enzymatic activity
enzymatic activity of CK1γ2 (CK1γ2): < 15 % enzymatic activity
enzymatic activity of NUAK1 (NUAK1): < 15 % enzymatic activity
enzymatic activity of ULK2 (ULK2 [10]): < 15 % enzymatic activity
enzymatic activity of TAK1 (TAK1 [11]): < 15 % enzymatic activity
reduction of arthritis score vs etanercept-refractory animals switched to vehicle [12]: 40%
blood chemistries or complete blood counts [13]: no significant differences
body weight change [13]: no significant weight loss
morbidity [13]: no signs of morbidity
relative organ weights (liver, heart, thymus, kidneys, brain, spleen) [13]: no significant weight loss; also recorded: did not cause any significant or dose-dependent changes; also recorded: not cause a significant or dose-dependent change
water solubility (Water solubility): good
IC50 (TAK1 [1]; selectivity screening, FIG. 1B, read-out: TAK1 inhibition IC50): 2.5 nM
IC50 (IRAK4; read-out: IC50 (IRAK4)): 2500 nM
IC50 (IRAK4; selectivity screening, FIG. 1B, read-out: IRAK4 inhibition IC50): 2510 nM
time of Cmax post gavage ([2]; 50 mg/kg oral gavage): 2 h
time post gavage up to which M (μM) plasma concentration was shown ([2]; 50 mg/kg oral gavage): 8 to 12 h
peak in urine concentration ([2]; 50 mg/kg oral gavage, at 12 hours): 100 µM
Cmax ([2]; male, Sprague Dawley, rat, plasma, 50 mg/kg oral gavage): 1890 nM
oral bioavailability ([2]; rat, in vivo, po): high

Compound: NC(=O)c1cccc(C(=O)/N=c2\[nH]c3ccc(CO)cc3n2[C@H]2CC[C@H](O)CC2)c1 [Compound 7]
IC50 (TAK1 [1]; read-out: IC50 (TAK1)): 1.6 nM
IC50 (IRAK4): 8.2 nM
Ratio IC50 (IRAK4)/IC50 (TAK1) (IRAK4): 5

Compound: CN(Cc1cnc2nc(N)nc(N)c2n1)c1ccc(C(=O)N[C@@H](CCC(=O)O)C(=O)O)cc1 [methotrexate, reference compound]
reduction in clinical arthritis scores vs vehicle ([3]; 1 mg/kg, PO, once daily, FIG. 4C): 72%

Compound: C[C@@H]1CCN(C(=O)CC#N)C[C@@H]1N(C)c1ncnc2[nH]ccc12 [tofacitinib, reference compound]
reduction in clinical arthritis scores vs vehicle ([3]; 30 mg/kg, PO, twice daily (BID), FIG. 4D): 50%
TNF secretion (THP-1 human macrophages; LPS and IFNγ challenge, FIG. 1D): minimal to no TNF reduction

Compound: etanercept
reduction in clinical arthritis scores vs vehicle ([3]; 10 mg/kg, IP, once daily, FIG. 4B): 57%

bioavailability [14]: low
IC50 (TAK1 [1]; read-out: IC50 (TAK1)): 9 nM
affinity for IRAK4 less than TAK1 (IRAK4): ~12 fold
IC50 (IRAK4; read-out: IC50 (IRAK4)): 120 nM
Ratio IC50 (IRAK4)/IC50 (TAK1) (IRAK4): 13
Compound: takinib [Compound 1, reference compound]
